# Results reported in patent publication US8188133B2, “Imidazole derivatives, preparation and user thereof as medicine” (Ipsen Pharma S.A.S., priority 2006, dated 2012).
row,SMILES,melting point [°C]
1,"Cc1ccc(NC(=O)Nc2ccc(Oc3ccc(-c4c[nH]c(COc5ccccc5)n4)cc3)cc2)cc1 [Example 1, N-(4-methylphenyl)-N′-(4-{4-[2-(phenoxymethyl)-1H-imidazol-4-yl]phenoxy}phenyl)urea]",192 to 194
2,"O=C(Nc1ccccc1)Nc1ccc(Oc2ccc(-c3c[nH]c(COc4ccccc4)n3)cc2)cc1 [Example 8, N-(4-{4-[2-(phenoxymethyl)-1H-imidazol-4-yl]phenoxy}phenyl)-N′-phenylurea]",146 to 148
3,"CCNC(=S)Nc1ccc(Oc2ccc(-c3c[nH]c(COc4ccccc4)n3)cc2)cc1 [Example 4, N-ethyl-N′-(4-{4-[2-(phenoxymethyl)-1H-imidazol-4-yl]phenoxy}phenyl)thiourea]",178 to 180
4,"CC(C)NC(=O)Nc1ccc(Oc2ccc(-c3c[nH]c(COc4ccccc4)n3)cc2)cc1 [Example 7, N-isopropyl-N′-(4-{4-[2-(phenoxymethyl)-1H-imidazol-4-yl]phenoxy}phenyl)urea]",184 to 186
5,CCCCNC(=O)Nc1ccc(Oc2ccc(-c3c[nH]c(COc4ccccc4)n3)cc2)cc1.O=C(O)C(F)(F)F,85 to 87

# Second part, the compound after the results:
row,melting point [°C],SMILES
1,185 to 187,Cl.NS(=O)(=O)Nc1ccc(Oc2ccc(-c3c[nH]c(COc4ccccc4)n3)cc2)cc1F
2,171 to 173,"NC(=S)Nc1ccc(Oc2ccc(-c3c[nH]c(COc4ccccc4)n3)cc2)cc1F [Example 6, N-(2-fluoro-4-{4-[2-(phenoxymethyl)-1H-imidazol-4-yl]phenoxy}phenyl)thiourea]"
3,200 to 202,"NC(=O)Nc1ccc(Oc2ccc(-c3c[nH]c(COc4ccccc4)n3)cc2)cc1 [Example 3, N-(4-{4-[2-(phenoxymethyl)-1H-imidazol-4-yl]phenoxy}phenyl)urea]"
4,105 to 107,"CCNC(=S)Nc1ccc(Oc2ccc(-c3c[nH]c(COc4ccccc4)n3)cc2)cc1F [Example 5, N-ethyl-N′-(2-fluoro-4-{4-[2-(phenoxymethyl)-1H-imidazol-4-yl]phenoxy}phenyl)thiourea]"
5,193 to 195,"NC(=N[N+](=O)[O-])Nc1ccc(Oc2ccc(-c3c[nH]c(COc4ccccc4)n3)cc2)cc1F [Example 13, N-(2-fluoro-4-{4-[2-(phenoxymethyl)-1H-imidazol-4-yl]phenoxy}phenyl)-N″-nitroguanidine]"
6,139 to 141,"N#CN=C(N)Nc1ccc(Oc2ccc(-c3c[nH]c(COc4ccccc4)n3)cc2)cc1F [Example 12, N″-cyano-N-(2-fluoro-4-{4-[2-(phenoxymethyl)-1H-imidazol-4-yl]phenoxy}phenyl)guanidine]"
